Experimental data taken from patent EP0178682A2, “1,3-Bis(1H-1,2,4-triazol-1-yl)-2-fluoro-2-(2,4-difluorophenyl)propane, antifungal composition containing it, and process for preparation of the compound and the composition” (SCHERING CORPORATION, priority 1984, dated 1986).
≈ marks a conversion by molar mass, not a printed value. Like-named read-outs stand apart in the source and are kept apart here.

Legend:
[1] = test system: a large number of fungi; assay: conventional antifungal screening test, in vitro, Sabourand broth medium; format: cell-based
[2] = test system: six strains of Candida; assay: in vitro antifungal activity (MIC) in Eagles medium; format: cell-based; conditions: for MIC: six strains of Candida
[3] = test system: Candida albicans; assay: mouse Candida albicans oral infection model; format: in vivo; conditions: compared to ketoconazole

Q: Which results are given for `Fc1ccc(C(F)(Cn2cncn2)Cn2cncn2)c(F)c1` [compound of this invention, 1,3-Bis(1H-1,2,4-triazol-1-yl)-2-(2,4-difluorophenyl)-2-fluoro-propane]?
A: in vitro activity against a large number of fungi [1]: negligible in vitro activity; in vitro activity against six strains of Candida compared to ketoconazole [2]: significantly lower in vitro activity; MIC ([2]; after 48 hours, read-out: mean Minimum Inhibitory Concentration (MIC)): 4 µg/mL (≈ 13 µM); preventive dosage required for survival of 100% of the test animals [3]: lower than that required for ketoconazole

Q: `CC(=O)N1CCN(c2ccc(OCC3COC(Cn4ccnc4)(c4ccc(Cl)cc4Cl)O3)cc2)CC1` (stereo not drawn) [ketoconazole, reference compound] was tested. Which “in vitro activity against a large number of fungi” value [1] did it give?
A: negligible in vitro activity

Q: And the MIC ([2]; read-out: MIC)?
A: < 0.031 µg/mL
